ChEMBL document CHEMBL3301562, “MMV Box screening against Plasmodium falciparum protein kinases and aminoacyl tRNA synthetases”

Tests used:
Assay type in all cases: functional
[1] = target: T1, Cdk-related protein kinase 6 (Plasmodium falciparum, UniProt O77239); test: Final concentrations were 1.5 uM ATP, 5 mM MnCl2, and 15 ug/ml PK6 in a buffer of 100 mM Tris-HCl (pH 7.5). 50 ug/mL MBP was provided as the substrate; 10 uM staurosporine was used as a control inhibitor. Incubation time was 3 hours and 40 minutes.The catalytic activity of each kinase was considered proportional to ATP consumed, as determined from measurements of residual [ATP] with the luciferase-based reagent Kinase-Glo (Promega) following incubation. Luminescence (proportional to residual [ATP]) was measured on the plate readers FLx800 (BioTek Instruments, Winooski, VT, USA) and MicroBeta2.
T1 sequence (O77239 whole entry): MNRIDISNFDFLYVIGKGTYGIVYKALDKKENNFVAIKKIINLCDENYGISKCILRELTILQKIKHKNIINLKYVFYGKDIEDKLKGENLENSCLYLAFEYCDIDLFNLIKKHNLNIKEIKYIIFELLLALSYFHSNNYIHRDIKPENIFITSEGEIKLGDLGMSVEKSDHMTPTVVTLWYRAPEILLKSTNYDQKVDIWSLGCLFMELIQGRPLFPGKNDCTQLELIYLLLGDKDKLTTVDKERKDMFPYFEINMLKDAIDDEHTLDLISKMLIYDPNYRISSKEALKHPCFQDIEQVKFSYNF

[2] = target: T2, Putative uncharacterized protein pk7 (Plasmodium falciparum, UniProt O96214); test: Final concentrations were 1 uM ATP, 2 mM DTT, 20 mM MgCl2, 2 mM MnCl2, 0.01% BSA, and 6 ug/ml PK7, in a buffer of 20 mM Tris-HCl (pH 7.5). The enzyme itself was the only substrate present (since autophosphorylation occurs); 100 uM 1NA-PP1 was used as a control inhibitor. Incubation time was 3 hours.
T2 sequence (O96214 whole entry): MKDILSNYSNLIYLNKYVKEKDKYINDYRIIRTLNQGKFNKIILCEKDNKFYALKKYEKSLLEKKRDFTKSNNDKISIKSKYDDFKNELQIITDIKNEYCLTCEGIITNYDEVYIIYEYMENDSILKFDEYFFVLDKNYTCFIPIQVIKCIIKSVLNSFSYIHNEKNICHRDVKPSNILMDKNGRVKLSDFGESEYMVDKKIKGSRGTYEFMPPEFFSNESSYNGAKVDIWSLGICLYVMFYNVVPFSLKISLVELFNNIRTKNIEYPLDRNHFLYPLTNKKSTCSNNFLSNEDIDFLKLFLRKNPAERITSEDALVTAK

[3] = target: T3, Mitogen-activated protein kinase (Plasmodium falciparum, UniProt Q25917); test: Final concentrations were 1 uM ATP, 0.5 mM DTT, 1 mM MgCl2, 0.5 mg/mL BSA, and 10 ug/ml MAP2 in a buffer of 50 mM HEPES (pH 7.0). 0.5 mg/mL histone III-S served as the substrate (13); 100 uM AMP-PNP, an ATP analog, was used as a control inhibitor. Incubation time was 4 hours.
T3 sequence (Q25917 whole entry): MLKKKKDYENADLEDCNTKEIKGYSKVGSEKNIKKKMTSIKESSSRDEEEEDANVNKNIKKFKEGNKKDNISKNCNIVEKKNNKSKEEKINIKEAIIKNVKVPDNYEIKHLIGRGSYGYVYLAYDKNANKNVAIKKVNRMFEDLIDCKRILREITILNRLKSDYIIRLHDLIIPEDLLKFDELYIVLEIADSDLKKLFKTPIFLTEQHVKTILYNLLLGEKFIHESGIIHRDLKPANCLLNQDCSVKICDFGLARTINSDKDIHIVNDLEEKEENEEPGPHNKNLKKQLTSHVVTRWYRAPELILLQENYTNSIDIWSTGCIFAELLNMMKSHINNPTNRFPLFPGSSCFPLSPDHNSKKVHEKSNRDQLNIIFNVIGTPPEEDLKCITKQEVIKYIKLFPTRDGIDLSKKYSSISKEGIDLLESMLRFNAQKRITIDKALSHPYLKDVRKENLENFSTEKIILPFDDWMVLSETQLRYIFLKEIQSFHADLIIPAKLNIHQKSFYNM

[4] = target: Calcium-dependent protein kinase 1 (Plasmodium falciparum, UniProt P62344); test: MMV: CDPK1 Protein kinase inhibition assay using recombinant PfCDPK1, syntide 2 peptide substrate, ATP and KinaseGlo to measure % inhibition at 1 uM MMV box compound.
[5] = target: T4, Calcium-dependent protein kinase 4 (Plasmodium falciparum (isolate 3D7), UniProt Q8IBS5); test: MMV: CDPK4 Protein kinase inhibition assay using recombinant PfCDPK4, syntide2 peptide substrate, ATP and KinaseGlo to measure % inhibition at 1 uM MMV box compound.
T4 sequence (Q8IBS5 whole entry): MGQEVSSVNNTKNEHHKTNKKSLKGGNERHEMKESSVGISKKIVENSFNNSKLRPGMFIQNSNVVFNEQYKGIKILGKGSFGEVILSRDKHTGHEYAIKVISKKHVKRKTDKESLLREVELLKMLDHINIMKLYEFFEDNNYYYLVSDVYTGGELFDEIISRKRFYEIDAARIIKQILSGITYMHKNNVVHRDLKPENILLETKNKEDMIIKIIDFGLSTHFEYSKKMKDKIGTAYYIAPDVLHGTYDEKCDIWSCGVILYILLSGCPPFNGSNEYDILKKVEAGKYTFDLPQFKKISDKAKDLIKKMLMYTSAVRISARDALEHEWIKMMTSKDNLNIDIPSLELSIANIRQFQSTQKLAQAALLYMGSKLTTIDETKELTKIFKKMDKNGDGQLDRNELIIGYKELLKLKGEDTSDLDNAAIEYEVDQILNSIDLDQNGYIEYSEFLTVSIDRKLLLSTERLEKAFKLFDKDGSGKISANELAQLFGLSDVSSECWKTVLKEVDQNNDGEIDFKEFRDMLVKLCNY

Proline--tRNA ligase = target: T5, Proline--tRNA ligase (Plasmodium falciparum (isolate 3D7), UniProt Q8I5R7); test: MMV: ProRS recombinant Plasmodium falciparum Prolyl-tRNA-synthetase, assay with yeast tRNA, ATP, and proline and 3 uM MMV malaria box compound, assay read out with kinase glo as % inhibition.
T5 sequence (Q8I5R7 whole entry): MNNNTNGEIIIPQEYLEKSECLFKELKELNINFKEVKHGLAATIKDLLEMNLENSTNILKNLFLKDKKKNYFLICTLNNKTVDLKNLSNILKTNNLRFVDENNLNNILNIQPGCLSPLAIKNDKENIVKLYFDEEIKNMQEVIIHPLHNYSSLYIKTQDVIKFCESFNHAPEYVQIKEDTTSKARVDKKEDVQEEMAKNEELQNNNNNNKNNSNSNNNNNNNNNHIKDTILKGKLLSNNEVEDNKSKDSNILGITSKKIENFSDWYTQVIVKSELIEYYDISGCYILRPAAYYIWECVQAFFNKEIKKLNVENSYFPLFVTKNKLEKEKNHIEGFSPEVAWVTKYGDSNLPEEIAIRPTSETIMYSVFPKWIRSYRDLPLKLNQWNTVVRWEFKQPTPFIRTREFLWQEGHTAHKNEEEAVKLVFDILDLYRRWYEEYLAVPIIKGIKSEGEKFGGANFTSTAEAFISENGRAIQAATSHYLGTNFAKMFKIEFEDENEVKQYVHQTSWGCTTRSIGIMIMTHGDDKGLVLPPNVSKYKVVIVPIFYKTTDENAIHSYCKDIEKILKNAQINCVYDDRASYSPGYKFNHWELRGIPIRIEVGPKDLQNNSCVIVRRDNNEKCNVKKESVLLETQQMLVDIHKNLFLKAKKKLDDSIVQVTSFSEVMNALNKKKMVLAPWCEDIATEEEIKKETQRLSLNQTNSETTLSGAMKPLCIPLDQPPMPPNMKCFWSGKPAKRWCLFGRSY

Lysine--tRNA ligase = Lysine--tRNA ligase (Plasmodium falciparum (isolate 3D7), UniProt Q8IDJ8); test: MMV: KRS recombinant Plasmodium falciparum Lysyl-tRNA-synthetase, assay with yeast tRNA, ATP, and lysine and 3 uM MMV malaria box compound, assay read out with kinase glo as % inhibition.
Chain of Lysine--tRNA ligase (Q8IDJ8 whole entry): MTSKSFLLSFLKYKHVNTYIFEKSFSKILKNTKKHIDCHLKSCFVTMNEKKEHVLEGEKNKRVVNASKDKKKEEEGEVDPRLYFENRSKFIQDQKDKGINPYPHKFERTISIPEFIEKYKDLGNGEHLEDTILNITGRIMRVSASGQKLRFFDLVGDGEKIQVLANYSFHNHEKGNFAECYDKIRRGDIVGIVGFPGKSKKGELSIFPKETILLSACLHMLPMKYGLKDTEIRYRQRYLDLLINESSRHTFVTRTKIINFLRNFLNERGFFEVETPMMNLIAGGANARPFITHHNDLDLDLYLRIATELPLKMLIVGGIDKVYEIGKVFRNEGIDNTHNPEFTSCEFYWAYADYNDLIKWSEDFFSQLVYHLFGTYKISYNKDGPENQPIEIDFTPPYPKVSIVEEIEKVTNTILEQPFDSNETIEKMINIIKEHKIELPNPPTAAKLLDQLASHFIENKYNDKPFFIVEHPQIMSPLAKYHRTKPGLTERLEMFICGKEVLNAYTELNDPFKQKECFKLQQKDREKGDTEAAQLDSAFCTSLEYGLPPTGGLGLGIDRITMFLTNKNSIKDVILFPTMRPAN

Chain of Calcium-dependent protein kinase 1 (P62344 whole entry): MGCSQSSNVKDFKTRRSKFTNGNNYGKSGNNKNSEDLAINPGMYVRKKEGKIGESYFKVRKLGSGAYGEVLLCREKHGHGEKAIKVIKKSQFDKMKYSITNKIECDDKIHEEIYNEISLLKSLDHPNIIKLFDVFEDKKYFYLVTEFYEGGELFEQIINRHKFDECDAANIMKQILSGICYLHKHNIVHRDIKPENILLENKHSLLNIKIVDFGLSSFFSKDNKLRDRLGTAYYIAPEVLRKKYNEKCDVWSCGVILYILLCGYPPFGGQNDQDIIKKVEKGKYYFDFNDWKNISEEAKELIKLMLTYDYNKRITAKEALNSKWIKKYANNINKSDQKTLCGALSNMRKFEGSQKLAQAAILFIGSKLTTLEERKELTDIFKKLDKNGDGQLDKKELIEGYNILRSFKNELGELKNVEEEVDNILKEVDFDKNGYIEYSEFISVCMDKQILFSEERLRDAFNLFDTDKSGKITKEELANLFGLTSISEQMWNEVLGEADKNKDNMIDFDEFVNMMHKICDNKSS

SMILES | IC50 [1] [nM] | IC50 [2] [nM] | IC50 [3] [nM] | IC50 [4] [nM] | IC50 [5] [nM] | IC50 (Proline--tRNA ligase) [nM] | IC50 (Lysine--tRNA ligase) [nM]
CCCCCCc1cc2cc(-c3csc(C=Cc4ccccc4)n3)c(=O)oc2cc1O | > 1000 | > 1000 | > 1000 | > 1000 | > 1000 | > 2500 | > 2500
Oc1ccc(C(=C(Cl)Cl)c2ccc(O)cc2)cc1 | > 1000 | > 1000 | > 1000 | > 1000 | > 1000 | > 2500 | > 2500
CN(C)CCCNc1c2ccccc2nc2ccccc12 | > 1000 | > 1000 | > 1000 | > 1000 | > 1000 | > 2500 | > 2500
O=C(CCl)NCCOc1ccc(Cl)cc1Cl | > 1000 | > 1000 | > 1000 | > 1000 | > 1000 | > 2500 | > 2500
COc1ccc(N2CCN(C(CNC(=O)CC(C)(C)C)c3ccc4c(c3)OCO4)CC2)cc1 (configuration not stated) | > 1000 | > 1000 | > 1000 | > 1000 | > 1000 | > 2500 | > 2500
OC(CNC1CCCCC1)Cn1c2ccccc2c2ccccc21 (configuration not stated) | > 1000 | > 1000 | > 1000 | > 1000 | > 1000 | > 2500 | > 2500
OC1=C2C(=Nc3ccccc3SC2c2ccc(Br)cc2)c2ccccc21 (configuration not stated) | > 1000 | > 1000 | > 1000 | > 1000 | > 1000 | > 2500 | > 2500
O=C(Nc1ccc(-c2nc3cc4ccccc4cc3[nH]2)cc1)c1cccc(Br)c1 | > 1000 | > 1000 | > 1000 | > 1000 | > 1000 | > 2500 | > 2500
CCOc1cccc(C(=O)Nc2ccc(-c3nc4ccccc4[nH]3)cc2)c1 | > 1000 | > 1000 | > 1000 | > 1000 | > 1000 | > 2500 | > 2500
Cc1[nH]c(-c2ccc(F)cc2)cc1C(=O)NC1CCN(Cc2ccccc2)CC1 | > 1000 | > 1000 | > 1000 | > 1000 | > 1000 | > 2500 | > 2500
O=C(Nc1cccc(C(F)(F)F)c1)c1cc(Cl)ccc1O | > 1000 | > 1000 | > 1000 | > 1000 | > 1000 | > 2500 | > 2500
